Experiments:
[1] = molecular target: T1, rGLUT5 (Rattus norvegicus, UniProt P43427); assay: competitive […]-D-fructose uptake in proteoliposomes, […] compound, […] reduction; type: biochemical
T1 construct: gene Slc2a5
T1 sequence (P43427 1-502): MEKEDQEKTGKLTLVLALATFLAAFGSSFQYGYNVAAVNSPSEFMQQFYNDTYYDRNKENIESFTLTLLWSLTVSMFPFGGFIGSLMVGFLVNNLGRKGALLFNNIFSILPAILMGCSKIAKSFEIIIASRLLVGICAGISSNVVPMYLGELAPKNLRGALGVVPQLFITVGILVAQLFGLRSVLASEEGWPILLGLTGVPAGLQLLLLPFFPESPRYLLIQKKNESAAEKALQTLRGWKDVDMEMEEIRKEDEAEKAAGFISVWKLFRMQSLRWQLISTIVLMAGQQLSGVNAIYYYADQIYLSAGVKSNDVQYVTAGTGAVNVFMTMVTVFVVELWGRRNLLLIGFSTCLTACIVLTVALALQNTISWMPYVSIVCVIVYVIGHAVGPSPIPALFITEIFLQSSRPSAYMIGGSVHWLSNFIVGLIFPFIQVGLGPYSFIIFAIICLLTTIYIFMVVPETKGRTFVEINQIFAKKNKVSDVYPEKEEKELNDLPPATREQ

[2] = molecular target: T1, rGLUT5; assay: inhibition of […]-D-fructose uptake by purified rGLUT5 in brain-fraction-seven proteoliposomes; type: biochemical

Row | SMILES | % reduction [1] | IC50 [2]
1 | Cc1ccc(NC(=O)Oc2ccccc2)cc1 [C2, phenyl-n-(p-tolyl)-carbamate] | 20 % reduction | 
2 | Cc1ccc(NC(=O)Oc2ccc(C)cc2)cc1 [H4, 4-methylphenyl-N-(4-methylphenyl)-carbamate] |  | 500 µM

From publication PMC10333360, “Establishing mammalian GLUT kinetics and lipid composition influences in a reconstituted-liposome system” (Nature Communications, 2023)
